{"source": "patent US11478011B2", "about": "“Nutritional compositions and infant formula for promoting de novo myealination” (NESTEC S.A., priority 2015, dated 2022)", "data": [{"test_system": "brain myelination (myelin water fraction) of children up to 5 years of age", "experiment": "Correlation analysis between infant formula nutrient composition and brain myelination (mcDESPOT MRI myelin water fraction)", "format": "in vivo, human", "details": "formula-fed children up to 5 years; brain regions listed in the block; FIG. 1b-1p", "description": "MRI (Magnetic Resonance Imaging): MRI brain scans of infants and children between 0 and 5 years were acquired using a white matter imaging technique. This technique provides a quantitative measure, the Myelin Water Fraction (MWF), which is a surrogate marker of myelin content in the brain. When mapped as a function of time across early childhood, myelination trajectories can be generated.\nInfant formula composition: six infant formulas fed to infants participating in a study were analyzed for their composition/level of myelin-relevant nutrients.\nInfants included in this study were drawn from a larger longitudinal study of normal brain and behavioral development: the Brown University Assessment of Myelination and Behavior Across Maturation (BAMBAM). To focus on neurotypical development, children with known potential risk factors for learning, neurologic, or psychiatric disorders were specifically excluded during recruitment and enrollment. Thus, children with in utero alcohol or illicit substance exposure, premature (<37 weeks gestation) or multiple birth, fetal ultrasound abnormalities, complicated pregnancy (e.g., preeclampsia), APGAR scores <8, NICU admission, neurological disorder (e.g., head injury, epilepsy), psychiatric or developmental disorders in the infant, parents or siblings (including maternal depression requiring medication) were excluded. Ongoing screenings, such as the MCAT for autism, or CBCL for behavioral problems, were further used to remove enrolled children with clinically concerning behaviors or overt medical conditions (such as autism spectrum disorders).\nA combination of retrospective and prospective data were acquired from parents via detailed medical histories and parental interview on the type of infant formula used, percentage of breastfeeding to formula feeding, and length of exclusive breastfeeding. This information was updated at each study visit, which occurred approximately every 6 months for children under 2 years, and yearly for older children. Using this information, children were categorized into one of 2 groups: #1. Exclusively formula-fed; and #2. Exclusively breastfed for at least 90 days (3 months). Children who were fed a combination of breastmilk and formula within 3 months were excluded from our analysis. Infants within the exclusively formula-fed group were further sub-divided based on parental reports of the main infant formula used throughout the first 3 months. Main formula was defined as that given 90% of the time or more (in the case were parents used an alternate brand during vacation, for example).\nUsing these criteria, 94 exclusively formula-fed infants and young children were selected into group #1. These included 13 children who received formula #2; 28 who received formula #5; 8 who received formula #3; 39 who received formula #4; 5 who received formula #1 and 1 who received formula #6. A sample of 52 exclusively breast-fed infants were also selected and matched to the over formula-fed group with regards to mean age, gestation duration, birth weight, male:female ratio, ethnicity ratio, maternal education, family size, and number of languages spoken in the home (in addition to English).\nEach infant was scanned using the mcDESPOT (multicomponent Driven Equilibrium Single Pulse Observation of T1 and T2) white matter imaging technique Deoni et al. (Magn. Reson. Med. 2008, 60:1372-1387), which provides a quantitative measure of the myelin water fraction (MWF)—a measure of myelin content—at each point throughout the brain. All infants were scanned during natural (i.e. non-sedated) sleep using acoustically-muffled mcDESPOT imaging protocols. Total imaging times ranged from 19 minutes for the youngest toddlers to 24 minutes for the older 4 year-old children.", "values": [{"compound": "iron", "association of nutrient with myelination (myelin water fraction) over time in the brain": "association with myelination (myelin water fraction) was observed over time in the brain"}, {"compound": "[P]", "note": "[phosphorus]", "association of nutrient with myelination (myelin water fraction) over time in the brain": "association with myelination (myelin water fraction) was observed over time in the brain"}, {"compound": "[Ca+2]", "note": "[calcium]", "association of nutrient with myelination (myelin water fraction) over time in the brain": "association with myelination (myelin water fraction) was observed over time in the brain"}, {"compound": "vitamin B12", "association of nutrient with myelination (myelin water fraction) over time in the brain": "association with myelination (myelin water fraction) was observed over time in the brain"}, {"compound": "CCCCC/C=C\\C/C=C\\C/C=C\\C/C=C\\CCCC(=O)O", "note": "[AA, arachidonic acid]", "association of nutrient with myelination (myelin water fraction) over time in the brain": "association with myelination (myelin water fraction) was observed over time in the brain"}, {"compound": "[Mg+2]", "note": "[magnesium]", "association of nutrient with myelination (myelin water fraction) over time in the brain": "association with myelination (myelin water fraction) was observed over time in the brain"}, {"compound": "phosphatidylcholine", "association of nutrient with myelination (myelin water fraction) over time in the brain": "association with myelination (myelin water fraction) was observed over time in the brain"}, {"compound": "Sphingomyelin", "association of nutrient with myelination (myelin water fraction) over time in the brain": "association with myelination (myelin water fraction) was observed over time in the brain"}, {"compound": "phosphatidylinositol", "association of nutrient with myelination (myelin water fraction) over time in the brain": "association with myelination (myelin water fraction) was observed over time in the brain"}, {"compound": "[Zn]", "note": "[zinc]", "association of nutrient with myelination (myelin water fraction) over time in the brain": "association with myelination (myelin water fraction) was observed over time in the brain"}]}, {"test_system": "Neural Progenitor Cell (NPCs) from E14 mouse neocortex", "experiment": "Neurosphere counts in 96-well plates", "format": "cell-based", "details": "Low dose (Dose 1: 10 nM); grown for 2 days; control 103", "description": "(§1) Media Compositions and Culture Methods 1) Neurobasal Complete Media Neurobasal media (LIFE TECHNOLOGIES CORP, #21103-049) 50× B27 supplement (LIFE TECHNOLOGIES CORP, #12587-010) 2 mM L-Glutamine (LIFE TECHNOLOGIES CORP, #25030-149) 1× Pen-Strep (LIFE TECHNOLOGIES CORP, #15140-122) 2) Neurobasal Media Complete with Growth Factors (GF) Above recipe with GF mix 1M Tris (MW 121.14, Fisher SCI BP152) Heparin (sigma H3149) BSA (Sigma A7030) DNAse, RNase, Protease free water (Fisher SCI AC327390010) EGF (GIBCO PHG0311) bFGF vial (GIBCO PHG0021) 3) Neurobasal Media No Choline (Life Technologies, Formulated Custom, No L-Glutamine, no phenol red) Note: complete and complete with GF made the same as above. Generation of Neural Progenitor Cell (NPCs) Libraries: dissociation of E14 mouse neocortex Reagents Needed: DPBS (1×)+10% Pen/Strep Neurobasal media/10% Pen/Strep/10× Hepes Procedure:\nE14 pup brains were harvested and placed in ice cold DPBS (1×)+10% Pen/Strep, then they were dissected using a dissecting microscope. From each pup, one brain hemisphere was placed in 2 ml of Neurobasal media/10% P/S/10× Hepes and another brain hemisphere was placed in another tube.\nThe tissue from each tube was aseptically and manually dissociate into single cells, neurobasal complete medium was added and centrifuged at 130 G for 5 min. […]", "values": [{"compound": "Sphingomyelin", "number of neurospheres, Average (Mean)": 94}]}, {"test_system": "Neural Progenitor Cell (NPCs) from E14 mouse neocortex", "experiment": "Monolayer culture NPC proliferation assay", "format": "cell-based", "details": "low dose (Dose 1: 10 nM); 3 days; control 262", "description": "as §1\nE14 pup brains were harvested and placed in ice cold DPBS (1×)+10% Pen/Strep, then they were dissected using a dissecting microscope. From each pup, one brain hemisphere was placed in 2 ml of Neurobasal media/10% P/S/10× Hepes and another brain hemisphere was placed in another tube. […]\nEDU incorporation was measured using Click-iT® EdU Alexa Fluor® 555 Imaging Kit (Life technologies, #c10338). […]", "values": [{"compound": "Sphingomyelin", "neuronal proliferation, DAPI": 280}]}]}
